Measurements from patent US20240216315A1, “METHODS AND COMPOSITIONS FOR TREATMENT OF DIABETIC RETINOPATHY AND RELATED CONDITIONS” (Ocuphire Pharma, Inc., priority 2021, published 2024).

Experiments:
[1] = Phase 2 clinical study, safety: blood chemistry (alanine and aspartate aminotransferase in subjects' blood); assay type: in vivo, human; settings: combined placebo and Compound 1 patients
Text: (§1) The study is to be configured as a placebo-controlled, double-masked, randomized, Phase 2 study in approximately 100 subjects with moderately severe to severe NPDR (diabetic retinopathy severity score [DRSS] Level 47 or 53, see FIG. 1) or mild PDR (DRSS Level 61), evaluating safety and efficacy following administration of Compound 1 twice daily for 24 weeks. The study will have a 1:1 randomization (placebo: Compound 1). Randomization will be stratified by level of disease severity (NPDR or PDR). Subjects with mild PDR will be capped at 20% for each arm. Efficacy evaluations at 12 and/or 24 weeks will include DRSS, center-involved diabetic macular edema (DME), moderate PDR or PDR-related adverse events (AEs), best-corrected visual acuity (BCVA), and central subfield thickness (CST). Further experimental procedures and results are described below.
(§2) At the Qualification/Baseline (Visit 2, Day 1): • The subject will be randomized into the study. • Study medication will be dispensed in accordance with the subjects randomized treatment arm. • Blood samples will be drawn pre-dose for baseline levels and on Visit 9 (Week 24) for exploratory biomarker processing (i.e., cytokine and Ref-1 levels) to evaluate pharmacodynamic properties. • Subjects will be instructed to administer their study medication (APX3330 or placebo) cach day, with 3 tablets every morning and 2 tablets every evening. Study medication should be taken at approximately the same time each day and may be taken with or without food.
At the Second Treatment Visit (Visit 6, Week 12±2 Days), subjects will return to the site for the following series of safety and efficacy assessments: drug accountability, concomitant medications, urine pregnancy test (only for women of childbearing potential), HR/BP/vital signs, BCVA (ETDRS), DRSS, CST (SD-OCT), blood draw for PK, blood chemistry, blood hematology, biomicroscopy, ophthalmoscopy, IOP, eGFR, and AEs. Following the completion of the assessments, used medication kits will be collected for accountability (by counting the number of unused tablets), and new study medication kits will be dispensed.
At the Third Treatment Visit (Visit 9, Week 24±2 Days), subjects will return to the site for the following series of safety and efficacy assessments: drug accountability, concomitant medications, urine pregnancy test (only for women of childbearing potential), physical examination, HR/BP/vital signs, BCVA (ETDRS), DRSS, CST (SD-OCT), blood chemistry, blood hematology, biomicroscopy, ophthalmoscopy, IOP, cGFR, AEs, and blood draw for exploratory biomarkers (ELISA, cytokine panel, comprehensive metabolic panel). Visit 9 (Week 24) is the end of the treatment period. Study medication will be returned for accountability (by counting the number of unused tablets), and no further study medication will be dispensed.
Study subjects will receive study medication as set forth in Table 1 according to the Treatment Group to which the subject is assigned. Subjects will be instructed to take study medication at approximately the same time each day, and the medication may be taken with or without food. […]

[2] = Phase 2 clinical study, safety: treatment-emergent adverse events; assay type: in vivo, human
Text: as §1, §2
Telephone safety calls will be conducted for Visit 3 (Week 1±2 Days), Visit 5 (Week 8±2 Days), Visit 7 (Week 16±2 Days), and Visit 8 (Week 20±2 Days). The safety assessment will include review of drug compliance, concomitant medications, AEs, and urine pregnancy test at home (only for women of childbearing potential).
Study subjects will receive study medication as set forth in Table 1 according to the Treatment Group to which the subject is assigned. […]

## CCCCCCCCC/C(=C\C1=C(C)C(=O)C(OC)=C(OC)C1=O)C(=O)O [Compound 1, (E)-2-((4,5-dimethoxy-2-methyl-3,6-dioxocyclohexa-1,4-dien-1-yl)methylene)undecanoic acid]
[1]; week 12, 50 subjects
  change in mean concentration of alanine aminotransferase in subjects' blood relative to Baseline: −0.8 IU/L
  change in mean concentration of aspartate aminotransferase in subjects' blood relative to Baseline: −0.5 IU/L
  reduction in mean concentration of alanine aminotransferase in subjects' blood relative to Baseline: 3.6%
  reduction in mean concentration of aspartate aminotransferase in subjects' blood relative to Baseline: 3%
[1]; week 24, 22 subjects
  change in mean concentration of alanine aminotransferase in subjects' blood relative to Baseline: −2.1 IU/L
  change in mean concentration of aspartate aminotransferase in subjects' blood relative to Baseline: −1.8 IU/L
  reduction in mean concentration of alanine aminotransferase in subjects' blood relative to Baseline: 9.4%
  reduction in mean concentration of aspartate aminotransferase in subjects' blood relative to Baseline: 9%
[2]; Compound 1 administered orally according to the study protocol (600 mg/day)
  safety profile in the patient population enrolled: good safety profile
[2]; from the 100 subjects enrolled, combined placebo and Compound 1 patients
  total of treatment-emergent adverse events observed: 83
[2]; of 100 subjects enrolled, combined placebo and Compound 1 patients
  subjects that reported at least one treatment-emergent adverse event: 41
